Assay results as given in paper PMC5218480 (PLoS ONE, 2017).

System: MV-4-11 cells
Assay: Gene expression microarray analysis (Affymetrix PrimeView) and GSEA
Type: cell-based, human
Set-up: RFU PODN (11730768_x_at) / Fold change /veh PODN (11730768_x_at) / RFU LINC00158 (11744669_a_at) / Fold change /veh LINC00158 (11744669_a_at) / RFU DUSP10 (11751237_a_at) / Fold change /veh DUSP10 (11751237_a_at) / RFU ID3 (11757404_x_at) / Fold change /veh ID3 (11757404_x_at) / RFU PLEKHG5 (11737974_s_at) / Fold change /veh PLEKHG5 (11737974_s_at) / RFU LRRC4B (11730491_at) / Fold change /veh LRRC4B (11730491_at) / RFU GIMAP4 (11747438_a_at) / Fold change /veh GIMAP4 (11747438_a_at) / RFU KRT8 (11758183_x_at) / Fold change /veh KRT8 (11758183_x_at) / RFU CNN1 (11734310_a_at) / Fold change /veh CNN1 (11734310_a_at) / RFU VPS37D (11726825_at) / Fold change /veh VPS37D (11726825_at) / RFU C10orf10 (11716522_x_at) / Fold change /veh C10orf10 (11716522_x_at) / RFU KIR2DL2 /// KIR2DL4 /// KIR2DL5A /// KIR2DL5B /// KIR2DS1 /// KIR2DS2 /// KIR2DS3 /// KIR2DS4 /// KIR3DL3 /// KIR3DL3 /// KIR3DS1 (11738374_at) / Fold change /veh KIR2DL2 /// KIR2DL4 /// KIR2DL5A /// KIR2DL5B /// KIR2DS1 /// KIR2DS2 /// KIR2DS3 /// KIR2DS4 /// KIR3DL3 /// KIR3DL3 /// KIR3DS1 (11738374_at) / RFU C1QL1 (11718748_at) / Fold change /veh C1QL1 (11718748_at) / RFU TMPRSS4 (11747572_a_at) / Fold change /veh TMPRSS4 (11747572_a_at) / RFU HAMP (11756126_x_at) / Fold change /veh HAMP (11756126_x_at) / RFU RNFT2 (11725882_a_at) / Fold change /veh RNFT2 (11725882_a_at) / RFU NR4A2 (11747474_a_at) / Fold change /veh NR4A2 (11747474_a_at) / RFU ABCC12 (11746883_a_at) / Fold change /veh ABCC12 (11746883_a_at) / RFU TMEM136 (11760407_x_at) / Fold change /veh TMEM136 (11760407_x_at) / RFU CLDN22 /// WWC2 (11732394_at) / Fold change /veh CLDN22 /// WWC2 (11732394_at) / RFU HLA-DPB1 (11760878_x_at) / Fold change /veh HLA-DPB1 (11760878_x_at) / RFU SPINT1 (11716480_a_at) / Fold change /veh SPINT1 (11716480_a_at) / RFU GAP43 (11754022_s_at) / Fold change /veh GAP43 (11754022_s_at) / RFU A4GNT (11735810_at) / Fold change /veh A4GNT (11735810_at) / RFU PRB3 (11715151_x_at) / Fold change /veh PRB3 (11715151_x_at) / RFU TUBB4B (11761932_at) / Fold change /veh TUBB4B (11761932_at) / RFU CAPN14 (11732068_a_at) / Fold change /veh CAPN14 (11732068_a_at) / RFU TMCC2 (11721928_a_at) / Fold change /veh TMCC2 (11721928_a_at) / RFU IRGQ (11745062_a_at) / Fold change /veh IRGQ (11745062_a_at) / RFU FAM174B (11720279_a_at) / Fold change /veh FAM174B (11720279_a_at) / RFU TMPRSS4 (11748680_a_at) / Fold change /veh TMPRSS4 (11748680_a_at) / RFU FAM212B (11763350_a_at) / Fold change /veh FAM212B (11763350_a_at) / RFU PLEKHG5 (11743358_a_at) / Fold change /veh PLEKHG5 (11743358_a_at) / RFU ZSCAN30 (11745921_a_at) / Fold change /veh ZSCAN30 (11745921_a_at) / RFU CMKLR1 (11741424_a_at) / Fold change /veh CMKLR1 (11741424_a_at) / RFU LOC101060620 /// MAPK8IP1 (11723275_at) / Fold change /veh LOC101060620 /// MAPK8IP1 (11723275_at) / RFU SPTSSB (11747773_x_at) / Fold change /veh SPTSSB (11747773_x_at) / RFU PRSS12 (11739890_at) / Fold change /veh PRSS12 (11739890_at) / RFU BIN1 (11741810_x_at) / Fold change /veh BIN1 (11741810_x_at) / RFU WNT11 (11732464_a_at) / Fold change /veh WNT11 (11732464_a_at) / RFU C10orf10 (11716521_a_at) / Fold change /veh C10orf10 (11716521_a_at) / RFU C5orf56 (11738089_at) / Fold change /veh C5orf56 (11738089_at) / RFU CYB561 (11721691_x_at) / Fold change /veh CYB561 (11721691_x_at) / RFU ANKRD19P (11752326_a_at) / Fold change /veh ANKRD19P (11752326_a_at) / RFU OR2T12 /// OR2T33 /// OR2T8 (11738714_s_at) / Fold change /veh OR2T12 /// OR2T33 /// OR2T8 (11738714_s_at) / RFU VCAN (11748164_a_at) / Fold change /veh VCAN (11748164_a_at) / RFU JSRP1 (11732532_at) / Fold change /veh JSRP1 (11732532_at) / RFU KRTAP10-11 (11738290_x_at) / Fold change /veh KRTAP10-11 (11738290_x_at) / RFU MYO3A (11730013_a_at) / Fold change /veh MYO3A (11730013_a_at) / RFU EBF3 (11725865_a_at) / Fold change /veh EBF3 (11725865_a_at) / RFU CAMK2N1 (11719241_x_at) / Fold change /veh CAMK2N1 (11719241_x_at) / RFU C5orf56 (11738088_a_at) / Fold change /veh C5orf56 (11738088_a_at) / RFU OLFML3 (11715873_a_at) / Fold change /veh OLFML3 (11715873_a_at) / RFU LOC100653217 /// NTM (11731650_a_at) / Fold change /veh LOC100653217 /// NTM (11731650_a_at) / RFU MAPK11 (11762145_a_at) / Fold change /veh MAPK11 (11762145_a_at) / RFU FIZ1 (11724087_x_at) / Fold change /veh FIZ1 (11724087_x_at) / RFU OASL (11726364_x_at) / Fold change /veh OASL (11726364_x_at) / RFU SOX15 (11748057_x_at) / Fold change /veh SOX15 (11748057_x_at) / RFU CD79A (11719716_a_at) / Fold change /veh CD79A (11719716_a_at) / RFU HIST1H1D (11736915_at) / Fold change /veh HIST1H1D (11736915_at) / RFU CASKIN2 (11723855_a_at) / Fold change /veh CASKIN2 (11723855_a_at) / RFU LOC730098 (11760151_x_at) / Fold change /veh LOC730098 (11760151_x_at) / RFU OR4N2 (11742367_at) / Fold change /veh OR4N2 (11742367_at) / RFU PRRT2 (11749266_a_at) / Fold change /veh PRRT2 (11749266_a_at) / RFU SNX32 (11753110_a_at) / Fold change /veh SNX32 (11753110_a_at) / RFU CDHR5 (11726645_a_at) / Fold change /veh CDHR5 (11726645_a_at) / RFU RCAN1 (11760418_a_at) / Fold change /veh RCAN1 (11760418_a_at) / RFU FAM167A (11723789_a_at) / Fold change /veh FAM167A (11723789_a_at) / RFU FAM26E (11764081_at) / Fold change /veh FAM26E (11764081_at) / RFU ISYNA1 (11749810_s_at) / Fold change /veh ISYNA1 (11749810_s_at) / RFU ACY1 (11761880_at) / Fold change /veh ACY1 (11761880_at) / RFU 11764098_at / Fold change /veh 11764098_at / RFU SAMD14 (11745864_x_at) / Fold change /veh SAMD14 (11745864_x_at) / RFU NPB (11741838_a_at) / Fold change /veh NPB (11741838_a_at) / RFU TMPRSS6 (11731388_a_at) / Fold change /veh TMPRSS6 (11731388_a_at) / RFU KRTAP10-2 (11738614_at) / Fold change /veh KRTAP10-2 (11738614_at) / RFU ARHGAP8 /// PRR5-ARHGAP8 (11727945_x_at) / Fold change /veh ARHGAP8 /// PRR5-ARHGAP8 (11727945_x_at) / RFU KRTAP5-7 /// NADSYN1 (11734609_at) / Fold change /veh KRTAP5-7 /// NADSYN1 (11734609_at) / RFU RASL12 (11751679_a_at) / Fold change /veh RASL12 (11751679_a_at) / RFU CDKN2B (11736163_a_at) / Fold change /veh CDKN2B (11736163_a_at) / RFU PRF1 (11729649_at) / Fold change /veh PRF1 (11729649_at) / RFU, ZNF638 /// ZNF638-IT1 / Fold change vs veh, ZNF638 /// ZNF638-IT1 / RFU, PANK3 / Fold change vs veh, PANK3 / RFU, SH3YL1 / Fold change vs veh, SH3YL1 / RFU, ZEB2 / Fold change vs veh, ZEB2 / RFU, NRIP1 / Fold change vs veh, NRIP1 / RFU, PTTG1IP / Fold change vs veh, PTTG1IP / RFU, CAPN2 / Fold change vs veh, CAPN2 / RFU, MED14 / Fold change vs veh, MED14 / RFU, SNORA58 / Fold change vs veh, SNORA58 / RFU, C1orf63 / Fold change vs veh, C1orf63 / RFU, LRRFIP1 / Fold change vs veh, LRRFIP1 / RFU, NDUFAF7 / Fold change vs veh, NDUFAF7 / RFU, SLC12A2 / Fold change vs veh, SLC12A2 / RFU, IBTK / Fold change vs veh, IBTK / RFU, ESF1 / Fold change vs veh, ESF1 / Fold change vs veh, TMEM50B / RFU, TAOK1 / Fold change vs veh, TAOK1 / RFU, ACBD3 / Fold change vs veh, ACBD3 / RFU, TMA16 / Fold change vs veh, TMA16 / RFU, RWDD3 / Fold change vs veh, RWDD3 / RFU, BCAT1 / Fold change vs veh, BCAT1 / RFU, EDEM3 / Fold change vs veh, EDEM3 / RFU, TMEM33 / Fold change vs veh, TMEM33 / RFU, WDR75 / Fold change vs veh, WDR75 / RFU, AHCTF1 / Fold change vs veh, AHCTF1 / RFU, TFRC / Fold change vs veh, TFRC / RFU, ZDHHC17 / Fold change vs veh, ZDHHC17 / RFU, NOM1 / Fold change vs veh, NOM1 / RFU, ARL8B / Fold change vs veh, ARL8B / RFU, ZBTB11 / Fold change vs veh, ZBTB11 / RFU, TAMM41 / Fold change vs veh, TAMM41 / RFU, KIAA1704 /// LOC100996395 / Fold change vs veh, KIAA1704 /// LOC100996395 / RFU, ING1 / Fold change vs veh, ING1 / RFU, TRMT61B / Fold change vs veh, TRMT61B / RFU, FUBP3 / Fold change vs veh, FUBP3 / RFU, TP53 / Fold change vs veh, TP53 / RFU, TNKS2 / Fold change vs veh, TNKS2 / RFU, ZFP14 / Fold change vs veh, ZFP14 / RFU, ACTR2 / Fold change vs veh, ACTR2 / RFU, PPP3R1 / Fold change vs veh, PPP3R1 / RFU, PIK3R1 / Fold change vs veh, PIK3R1 / RFU, HNRNPA1 / Fold change vs veh, HNRNPA1 / RFU, RNF170 / Fold change vs veh, RNF170 / RFU, ZNF28 / Fold change vs veh, ZNF28 / RFU, RNGTT / Fold change vs veh, RNGTT / RFU, OGT / Fold change vs veh, OGT / RFU, BRD1 / Fold change vs veh, BRD1 / RFU, MARS / Fold change vs veh, MARS / RFU, ZNF655 / Fold change vs veh, ZNF655 / RFU, FAHD1 / Fold change vs veh, FAHD1 / RFU, BDP1 / Fold change vs veh, BDP1 / RFU, LRRCC1 / Fold change vs veh, LRRCC1 / RFU, ARID1A / Fold change vs veh, ARID1A / RFU, ZNF146 / Fold change vs veh, ZNF146 / RFU, ZNF330 / Fold change vs veh, ZNF330 / RFU, GPN3 / Fold change vs veh, GPN3 / RFU, C9orf123 / Fold change vs veh, C9orf123 / RFU, N4BP2L2 / Fold change vs veh, N4BP2L2 / RFU, ARFIP1 / Fold change vs veh, ARFIP1 / RFU, FAM179B / Fold change vs veh, FAM179B / RFU, BCL10 / Fold change vs veh, BCL10 / RFU, UHRF1BP1L / Fold change vs veh, UHRF1BP1L / RFU, BET1 / Fold change vs veh, BET1 / RFU, CNOT2 / Fold change vs veh, CNOT2 / RFU, ZNF268 / Fold change vs veh, ZNF268 / Fold change vs veh, ZNF507 / RFU, DGCR2 / Fold change vs veh, DGCR2 / RFU, WDSUB1 / Fold change vs veh, WDSUB1 / Fold change vs veh, HSP90B1 /// MIR3652 / RFU, ADSS / Fold change vs veh, ADSS / RFU, GK / Fold change vs veh, GK / RFU, ZNF148 / Fold change vs veh, ZNF148 / RFU, TAF9 / Fold change vs veh, TAF9 / RFU, SLC1A5 / Fold change vs veh, SLC1A5 / RFU, SLMO2 / Fold change vs veh, SLMO2 / RFU, ABCC4 / Fold change vs veh, ABCC4 / RFU, LOC101060439 /// RAP1B / Fold change vs veh, LOC101060439 /// RAP1B / RFU, RFX7 / Fold change vs veh, RFX7 / RFU, GTPBP10 / Fold change vs veh, GTPBP10 / RFU, CNEP1R1 / Fold change vs veh, CNEP1R1 / RFU, BIVM-ERCC5 /// ERCC5 / Fold change vs veh, BIVM-ERCC5 /// ERCC5 / RFU, ILF3 / Fold change vs veh, ILF3 / RFU 11762660_at / Fold change /veh 11762660_at / RFU VCAN (11757783_s_at) / Fold change /veh VCAN (11757783_s_at) / RFU DDX43 (11728927_at) / Fold change /veh DDX43 (11728927_at) / RFU KRT8 (11758188_x_at) / Fold change /veh KRT8 (11758188_x_at) / RFU NKD1 (11759106_at) / Fold change /veh NKD1 (11759106_at) / RFU SRD5A1 (11742802_a_at) / Fold change /veh SRD5A1 (11742802_a_at) / RFU TPSAB1 /// TPSB2 (11721975_s_at) / Fold change /veh TPSAB1 /// TPSB2 (11721975_s_at) / RFU GSTM3 (11746129_a_at) / Fold change /veh GSTM3 (11746129_a_at) / RFU IL23R (11737362_x_at) / Fold change /veh IL23R (11737362_x_at) / RFU TMEM51 (11727254_a_at) / Fold change /veh TMEM51 (11727254_a_at) / RFU PIWIL2 (11732686_x_at) / Fold change /veh PIWIL2 (11732686_x_at) / RFU ORM1 (11744905_x_at) / Fold change /veh ORM1 (11744905_x_at) / RFU CCDC152 (11743942_at) / Fold change /veh CCDC152 (11743942_at) / RFU ECM1 (11717891_a_at) / Fold change /veh ECM1 (11717891_a_at) / RFU IL23R (11748794_a_at) / Fold change /veh IL23R (11748794_a_at) / RFU TNFAIP8L3 (11732012_x_at) / Fold change /veh TNFAIP8L3 (11732012_x_at) / RFU MBOAT4 (11741988_at) / Fold change /veh MBOAT4 (11741988_at) / RFU 11764193_at / Fold change /veh 11764193_at / RFU TMEM53 (11763286_at) / Fold change /veh TMEM53 (11763286_at) / RFU MAGEB2 (11727129_at) / Fold change /veh MAGEB2 (11727129_at) / RFU TMEM200A (11744735_a_at) / Fold change /veh TMEM200A (11744735_a_at) / RFU CCDC152 (11751479_a_at) / Fold change /veh CCDC152 (11751479_a_at) / RFU FAM211A (11726209_a_at) / Fold change /veh FAM211A (11726209_a_at) / RFU RGS16 (11746705_a_at) / Fold change /veh RGS16 (11746705_a_at) / RFU VCAN (11755009_s_at) / Fold change /veh VCAN (11755009_s_at) / RFU RHOB (11743442_s_at) / Fold change /veh RHOB (11743442_s_at) / RFU RGS16 (11720943_a_at) / Fold change /veh RGS16 (11720943_a_at) / RFU RGS16 (11720944_at) / Fold change /veh RGS16 (11720944_at) / RFU, VPS4B / Fold change vs veh, VPS4B / RFU, CREB1 / Fold change vs veh, CREB1 / RFU, DNAJC13 / Fold change vs veh, DNAJC13 / RFU, GNAQ / Fold change vs veh, GNAQ / RFU, CDK5R1 / Fold change vs veh, CDK5R1 / RFU, ZRANB3 / Fold change vs veh, ZRANB3 / RFU, CUL4A / Fold change vs veh, CUL4A / RFU, CCNY / Fold change vs veh, CCNY / RFU, UFL1 / Fold change vs veh, UFL1 / RFU, COG3 / Fold change vs veh, COG3 / RFU, DIAPH2 / Fold change vs veh, DIAPH2 / RFU, SKA2 / Fold change vs veh, SKA2 / RFU, AFF3 / Fold change vs veh, AFF3 / RFU, LMF1 / Fold change vs veh, LMF1 / RFU, IPO11 / Fold change vs veh, IPO11 / RFU, DFFB / Fold change vs veh, DFFB / RFU, FOXP1 / Fold change vs veh, FOXP1 / RFU, CARD8 / Fold change vs veh, CARD8 / RFU, STRN3 / Fold change vs veh, STRN3 / RFU, ADK / Fold change vs veh, ADK / RFU, RASSF2 / Fold change vs veh, RASSF2 / RFU, WIPF1 / Fold change vs veh, WIPF1 / RFU, LARP1B / Fold change vs veh, LARP1B / RFU, RASA1 / Fold change vs veh, RASA1 / RFU, RB1 / Fold change vs veh, RB1 / RFU, PPFIA1 / Fold change vs veh, PPFIA1 / RFU, MAT2A / Fold change vs veh, MAT2A / RFU, CCT5 / Fold change vs veh, CCT5 / RFU, WDR92 / Fold change vs veh, WDR92 / RFU, CUX1 / Fold change vs veh, CUX1 / RFU, TTC7A / Fold change vs veh, TTC7A / RFU, TMEM135 / Fold change vs veh, TMEM135 / RFU, DEPTOR / Fold change vs veh, DEPTOR / RFU, CPM / Fold change vs veh, CPM / RFU, DNAJB6 / Fold change vs veh, DNAJB6 / RFU, CACNA2D3 / Fold change vs veh, CACNA2D3 / RFU, DTX4 / Fold change vs veh, DTX4 / RFU, TFCP2 / Fold change vs veh, TFCP2 / RFU, GMCL1 /// GMCL1P1 / Fold change vs veh, GMCL1 /// GMCL1P1 / RFU, AEBP2 / Fold change vs veh, AEBP2 / RFU, SNHG1 /// SNORD22 /// SNORD25 /// SNORD26 /// SNORD27 /// SNORD28 /// SNORD29 /// SNORD31 / Fold change vs veh, SNHG1 /// SNORD22 /// SNORD25 /// SNORD26 /// SNORD27 /// SNORD28 /// SNORD29 /// SNORD31 / Fold change (Aza/veh), C12orf56 (ProbeSet 11735607_a_at) / Fold change (ACY-1035/veh), C12orf56 (ProbeSet 11735607_a_at) / Fold change (Aza/veh), FGFR1OP (ProbeSet 11751329_s_at) / Fold change (ACY-1035/veh), FGFR1OP (ProbeSet 11751329_s_at) / Fold change (Aza/veh), VPS36 (ProbeSet 11739960_a_at) / Fold change (ACY-1035/veh), VPS36 (ProbeSet 11739960_a_at) / RFU SYPL1 (11715823_x_at) / Fold change /veh SYPL1 (11715823_x_at) / RFU IGFBP7 (11715501_s_at) / Fold change /veh IGFBP7 (11715501_s_at) / RFU REEP3 (11722064_at) / Fold change /veh REEP3 (11722064_at) / RFU IGLL1 (11728026_x_at) / Fold change /veh IGLL1 (11728026_x_at): dose or concentration left out as unconfirmed
Settings: ProbeSet 11743580_s_at; LIST B

**Q.** `Nc1ccc(-c2cccs2)cc1NC(=O)c1ccc2c(c1)cc(C1CC1)n2CCN1CCOCC1` [ACY-1035] was tested. Which “Fold change vs veh, ACTR2” value did it give?
**A.** 0.83
